The text below walks through data of paper PMC7144264 (Journal of Enzyme Inhibition and Medicinal Chemistry, 2020).

Series [1] concerns the target T1, rat brain FAAH (Rattus norvegicus, UniProt P97612).
T1 construct: hydrolysis of 0.5 µM [^3H]AEA by rat brain homogenates; from tissue; host or cells: rat brain (minus cerebella), washed membrane homogenate
T1 sequence (P97612 1-579): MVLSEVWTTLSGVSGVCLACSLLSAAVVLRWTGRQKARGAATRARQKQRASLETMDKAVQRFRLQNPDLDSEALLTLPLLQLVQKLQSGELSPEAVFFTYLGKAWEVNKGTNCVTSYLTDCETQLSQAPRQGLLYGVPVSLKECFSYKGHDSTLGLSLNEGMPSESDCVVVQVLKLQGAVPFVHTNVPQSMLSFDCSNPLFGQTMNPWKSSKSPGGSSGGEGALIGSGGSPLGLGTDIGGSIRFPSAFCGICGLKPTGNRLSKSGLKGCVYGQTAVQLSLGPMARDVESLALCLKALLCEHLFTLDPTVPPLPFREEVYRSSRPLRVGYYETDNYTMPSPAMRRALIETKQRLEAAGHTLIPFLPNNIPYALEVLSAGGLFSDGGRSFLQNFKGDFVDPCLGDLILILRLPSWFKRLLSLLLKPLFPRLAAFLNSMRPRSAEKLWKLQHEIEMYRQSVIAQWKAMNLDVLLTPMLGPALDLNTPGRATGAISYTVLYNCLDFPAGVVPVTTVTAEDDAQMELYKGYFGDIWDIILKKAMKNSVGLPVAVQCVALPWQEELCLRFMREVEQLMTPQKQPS
Put plainly: FAAH assay: hydrolysis of [3H]AEA by rat brain homogenates. The format is biochemical. Conditions: for pIC50: 0.5 µM [3H]AEA, rat brain homogenates, read-out: IC50 for inhibition of the hydrolysis of [3H]AEA. The protocol: Frozen (−80 °C) brains (minus cerebella) from adult Wistar or Sprague-Dawley rats were thawed and homogenised in 20 mM HEPES, 1 mM MgCl2, pH 7.0. The homogenates were then centrifuged at ∼35000 x g for 20 min at 4 °C followed by washing (by recentrifugation and by resuspension in the buffer) twice before incubation at 37 °C for 15 min in order to hydrolyse all endogenous FAAH substrates. After a further centrifugation, pellets were resuspended in 50 mM Tris-HCl buffer, pH 7.4, containing 1 mM EDTA and 3 mM MgCl2, and frozen at −80 °C in aliquots until used for the assay. For the FAAH assay, test compounds, homogenates and [^3H]AEA (diluted with non-radioactive AEA to give a substrate concentration of 0.5 μM) in 10 mM Tris- HCl, 1 mM EDTA, pH 7.4, containing 1% w/v fatty acid-free bovine serum albumin were incubated for 10 min at 37 °C. Activated charcoal in 0.5 M HCl was added to adsorb the unmetabolized [^3H]AEA and the samples were mixed and left at r.t. for ∼30 min. Following centrifugation at 2000 g for 10 min, aliquots of the supernatants, containing the [^3H]ethanolamine produced by hydrolysis of [^3H]AEA, were analysed for tritium content by liquid scintillation spectroscopy with quench correction. Blank values were obtained by the use of buffer rather than homogenate.
Data were expressed as % of vehicle (ethanol) control and analysed using the algorithm log(inhibitor) vs. response – variable slope (four parameters) built into the GraphPad Prism computer programme v8.3 for the Macintosh (GraphPad Software Inc., San Diego, CA). The programme reports 95% confidence limits (profile likelihood) for the IC50 values and these presented in the results.

Series [2] has as its target T1, rat brain FAAH. Particulars: removal of the methyl group at the C-2 carbon atom; cited from earlier work.
In series [3] the test system is FAAH. More on the design: method as in PMID 25757568. Conditions: cited from earlier work.
On the set-up of series [4]: method as in PMID 25757568. Conditions: cited from earlier work.
Series [5] deals with COX-2. More on the design: method as in PMID 25757568. Particulars: cited from earlier work.
The subject of series [6] is COX-1. More on the design: method as in PMID 25757568. Conditions: cited from earlier work.
The target in series [7] is T2, ovine COX-1 (Ovis aries, UniProt P05979).
T2 sequence (P05979 25-600): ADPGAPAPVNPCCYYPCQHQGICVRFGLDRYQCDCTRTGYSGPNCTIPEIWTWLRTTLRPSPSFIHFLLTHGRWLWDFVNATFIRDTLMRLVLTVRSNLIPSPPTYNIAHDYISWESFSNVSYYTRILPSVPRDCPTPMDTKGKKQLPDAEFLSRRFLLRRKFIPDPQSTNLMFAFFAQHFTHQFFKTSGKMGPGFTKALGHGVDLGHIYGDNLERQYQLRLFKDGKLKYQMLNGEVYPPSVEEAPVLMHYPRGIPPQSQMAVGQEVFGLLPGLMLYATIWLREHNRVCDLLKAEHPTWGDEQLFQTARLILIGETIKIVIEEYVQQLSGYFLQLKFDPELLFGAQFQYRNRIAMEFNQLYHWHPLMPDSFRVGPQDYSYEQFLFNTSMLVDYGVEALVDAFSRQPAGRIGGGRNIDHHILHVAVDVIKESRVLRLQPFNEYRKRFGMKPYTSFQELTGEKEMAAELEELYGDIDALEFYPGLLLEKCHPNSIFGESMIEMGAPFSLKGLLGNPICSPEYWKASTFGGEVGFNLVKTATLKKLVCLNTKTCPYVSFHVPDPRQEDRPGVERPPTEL
Put plainly: COX-1 assay, oxygen electrode (cyclooxygenation of substrate). The format is biochemical. More on the design: purchased Cayman Chemical Co. 60100. Conditions: 10 µM AA. The protocol:
(§1) The assay was performed essentially according to the method of Meade et al[21]. An oxygen electrode chamber with integral stirring (Oxygraph System, Hansatech Instruments, King ´s Lynn, U.K.) was calibrated daily to ambient temperature and air pressure. The assay buffer contained 0.1 M Tris-HCl buffer pH 7.4, 1 μM haematin, 2 mM phenol, 5 mM EDTA, 10 μM substrate (AA or 2-AG) in a final assay volume was 2 ml. After addition of test compound, a baseline was established for 5 min before initiation of reaction by addition of 200 units ovine COX-1 or human recombinant COX-2. The change in oxygen consumption as a measurement of enzyme activity was monitored for approximately 5 min.

Series [8] addresses T1, rat brain FAAH. Put plainly: FAAH assay: hydrolysis of [3H]AEA by rat brain homogenates. The format is biochemical. Conditions: kinetics of inhibition of rat FAAH, mixed-type model.
For series [9], the target named is T3, human recombinant COX-2 (Homo sapiens, UniProt P35354).
T3 sequence (P35354 18-604): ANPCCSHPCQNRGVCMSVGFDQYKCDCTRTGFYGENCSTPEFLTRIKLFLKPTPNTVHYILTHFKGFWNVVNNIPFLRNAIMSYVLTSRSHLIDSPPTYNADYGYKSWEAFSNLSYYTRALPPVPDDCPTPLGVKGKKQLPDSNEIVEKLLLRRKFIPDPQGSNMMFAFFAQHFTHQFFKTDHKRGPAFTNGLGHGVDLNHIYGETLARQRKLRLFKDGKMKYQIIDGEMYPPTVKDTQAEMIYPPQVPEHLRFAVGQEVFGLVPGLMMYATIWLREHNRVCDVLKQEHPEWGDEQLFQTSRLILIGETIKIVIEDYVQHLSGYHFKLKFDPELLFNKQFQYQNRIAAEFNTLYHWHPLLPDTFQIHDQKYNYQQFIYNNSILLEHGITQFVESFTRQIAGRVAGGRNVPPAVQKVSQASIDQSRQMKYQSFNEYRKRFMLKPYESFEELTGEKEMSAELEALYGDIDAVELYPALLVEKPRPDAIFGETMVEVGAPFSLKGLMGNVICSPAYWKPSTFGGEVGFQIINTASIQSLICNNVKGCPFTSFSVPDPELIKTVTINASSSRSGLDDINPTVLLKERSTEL
Put plainly: COX-2 assay, oxygen electrode (cyclooxygenation of AA, 2-AG or AEA). It counts as biochemical. More on the design: purchased Cayman Chemical Co. 60122. Conditions: for inhibition of AA cyclooxygenation by COX-2: 10 µM AA. The protocol: as §1

The conditions of series [10]: in vivo; cited from earlier work.
For series [11], the target named is T3, human recombinant COX-2. Conditions: cited from earlier work.
For series [12] the following is noted: mouse; cited from earlier work.
In series [13] the target is T2, ovine COX-1. Conditions: read-out: concentration reducing the rate of cyclooxygenation to about half; COX-1, AA as substrate; cited from earlier work.

pIC50, pKi: −log10 of the molar value. “Also recorded” adds a separate entry of the source.

By melting point is commonly meant the temperature, or range, at which the solid turns liquid. In turn, `Cc1cc(O)ccc1NC(=O)C(C)c1ccc(CC(C)C)cc1` (centres unmarked) [Ibu-AM66, N-(4-Hydroxy-2-methylphenyl)-2-(4-isobutylphenyl)propanamide] displayed a melting point of 133 to 135 °C. Besides, in series [1], the pIC50 is 6.46.
Regarding `Cc1cccnc1NC(=O)C1(c2ccc(CC(C)C)cc2)CC1` [Ibu-AM73], the pIC50 in series [1] is 5.39.
Still for that read-out and setting: to `CC(C)Cc1ccc(C(C)C(=O)Nc2ncccc2Cl)cc1` (centres unmarked) [Ibu-AM58, N-(3-Chloropyridin-2-yl)-2-(4-isobutylphenyl)propanamide] belongs 6.04; to `Cc1cccnc1NC(=O)C(C)(C)c1ccc(CC(C)C)cc1` [Ibu-AM72, 2-(4-Isobutylphenyl)-2-methyl-N-(3-methylpyridin-2-yl)propanamide], 6.00.
Same read-out and setting: to `Cc1ccccc1NC(=O)C(C)c1ccc(CC(C)C)cc1` (centres unmarked) [Ibu-AM38, 2–(4-Isobutylphenyl)-N-(o-tolyl)propanamide] belongs 5.70; to `CC(C)Cc1ccc(C(C)C(=O)Nc2ncccc2I)cc1` (centres unmarked) [Ibu-AM69, N-(3-Iodopyridin-2-yl)-2-(4-isobutylphenyl)propanamide], 6.92.
Take `Cc1cccnc1NC(=O)Cc1ccc(CC(C)C)cc1` [Ibufenac-AM1]: the “reduction of FAAH inhibitory potency relative to Ibu-AM5” value in series [2] is “roughly 60 fold”.
The molecule `COc1ccc(NC(=O)C(C)c2ccc(CC(C)C)cc2)c(C)c1` (centres unmarked) [Ibu-AM67, 2-(4-Isobutylphenyl)-N-(4-methoxy-2-methylphenyl)propanamide] came in with a melting point of 100 to 102 °C. For the same molecule, in series [1], the pIC50 is 5.10.
Take `CCCCCCNC(=O)Oc1cccc(-c2ccc(C(C)C(=O)O)cc2F)c1` (racemic) [ARN2508, (±)−2-[3-fluoro-4-[3-(hexylcarbamoyloxy)phenyl]phenyl]propanoic acid]: the pIC50 was 7.51 in series [3], 6.38 in series [5] and 7.92 in series [6]. Also, in series [4], the “anti-inflammatory effects in vivo” value is given as “produced anti-inflammatory effects in vivo”. In series [4] (in vivo), the gastric irritation entry is given as “without causing gastric irritation”.
Molecule `CC(C)Cc1ccc(C(C)C(=O)Nc2ncccc2C(F)(F)F)cc1` (centres unmarked) [Ibu-AM60, 2-(4-Isobutylphenyl)-N-(3-(trifluoromethyl)pyridin-2-yl)propanamide] showed a melting point of 112 to 114 °C. The pIC50 in [1] is 6.44.
Regarding `CC(C)Cc1ccc(C(C)C(=O)Nc2ccc(O)cc2)cc1` (centres unmarked) [Ibu-AM65, N-(4-Hydroxyphenyl)-2-(4-isobutylphenyl)propanamide], in series [1], the pIC50 was 5.42.
In general, pKi refers to −log10 of the Ki, conventionally taken in molar units. Read a high pKi as a low Ki. Regarding `CC(C)Cc1ccc(C(C)C(=O)Nc2ncccc2Br)cc1` (centres unmarked) [Ibu-AM68, N-(3-Bromopyridin-2-yl)−2-(4-isobutylphenyl)propanamide], the “inhibition of AA cyclooxygenation by COX-1” value in series [7] (10 µM compound) is recorded as “modest inhibition”; in [7] (50 and 100 µM compound), “complete inhibition”. The same molecule gave a pKi in [8] of 6.59. Moreover, the “α value (ratio of the Ki intercept: Ki slope values)” value in series [8] came to 4.9. The pIC50 in [1] is 7.08. Further, the “mode of inhibition of FAAH” value in series [1] (60 min preincubation, 20-fold dilution, kinetic experiments) was “reversible, mixed-type mechanism of inhibition; also recorded: reversible mixed inhibitor”. For the same molecule, in series [1] (preincubation with homogenates for up to 60 min prior to addition of substrate), the “time-dependence of the inhibition” value is reported as “no time-dependence of the inhibition”. Besides, the “inhibition of 2-AG cyclooxygenation by COX-2” value in series [9] (10 µM compound, 10 µM 2-AG) was “greatly reduced; also recorded: almost completely inhibited”. In addition, the “inhibition of AA cyclooxygenation by COX-2” value in series [9] (10 µM compound) is reported as “did not inhibit”; in [9] (50 and 100 µM compound), “did not inhibit”.
In the case of “2–(4-isobutylphenyl)-N-(3-methylpyridin-2-yl)propenamide [Ibu-AM5]”, the ulcerogenic potency result in series [10] is recorded as “without appreciable ulcerogenic potency”. Moreover, in series [11] (100 µM Ibu-AM5), the “effect upon COX-2 with AA as substrate” value is “without effect”. The pIC50 was roughly 5.52 in series [11] (read-out: concentration reducing the rate of cyclooxygenation to about half, COX-2, AEA as substrate) and roughly 4.30 in [13]. Further, in series [12], the “analgesic activity, acetic acid-induced visceral nociception” value was “analgesic activity”.
For the molecule `CC(C)Cc1ccc(C(C)C(=O)Nc2ncccc2O)cc1` (centres unmarked) [Ibu-AM70, N-(3-Hydroxypyridin-2-yl)-2-(4-isobutylphenyl)propenamide], the pIC50 in series [1] is 5.57.
Still for that read-out and setting: to `CC(C)Cc1ccc(C(C)C(=O)Nc2ccccc2O)cc1` (centres unmarked) [Ibu-AM59, N-(2-Hydroxyphenyl)-2-(4-isobutylphenyl)propanamide] belongs 5.07.
